The source of these data is patent US9873657B2, “Derivatives of benzyl benzoate” (ROBERTET S.A., priority 2014, dated 2018).

The assay relates to Corynaebacterium xerosis. In words: In vitro deodorant activity and durability test (CFU counting in culture vials). Type of assay: cell-based. The note with it: for Number of CFU/ml at t + 24 h / Number of CFU/ml at t + 48 h: 37° C. How it is done: The test is carried out in vitro.
The compound 1 and the benzyl-4-benzoyloxybenzoate (reference compound described in the international patent application WO 91/07165) are both 10% diluted in benzylbenzoate, and incorporated in a specific culture medium at the moment of distribution in 50 ml vials.
The composition of the vials is characterized as follows: • Vial No. 1 • Brain Heart Infusion (medium)+0.5% Tween 40 • Compound 1 or benzyl-4-benzoyloxybenzoate—0.25% • Enzyme (Lipozyme® CALB, Novozymes)—2% • Bacteria (Corynaebacterium xerosis)—about 10^6 CFU/ml • Vial No. 2 • Brain Heart Infusion (medium)+0.5% Tween 40 • Compound 1 or benzyl-4-benzoyloxybenzoate—0.25% • Bacteria (Corynaebacterium xerosis)—about 10^6 CFU/ml • Vial No. 3 • Brain Heart Infusion (medium)+0.5% Tween 40 • Compound 1 or benzyl-4-benzoyloxybenzoate—0.25% • Enzyme (Lipozyme® CALB, Novozymes)—2%
Afterwards, the vials are incubated under stirring at 37° C. for 48 hours.
After 24 hours, a collection is performed, and 100 μl of a dilution to 1/1000th are spread out on gelose. Counting of the number of CFU (Colony Forming Units) is performed.
It is the comparison of the ratios between the amount of CFU/ml at a time t for the product+enzyme and the product alone which allows assessing the inhibiting activity of the product.

Setting [1] is: Vial 1: product 0.25% + enzyme (Lipozyme CALB) 2% + bacteria, Brain Heart Infusion + 0.5% Tween 40.
The mark [2] stands for this setting: Vial 2: product 0.25% + bacteria, no enzyme, Brain Heart Infusion + 0.5% Tween 40.
Where [3] appears, read: Vial 3: product 0.25% + enzyme 2%, no bacteria added.

For `O=C(OCc1ccccc1)c1ccc(OC(=O)c2ccc(Oc3ccccc3)cc2)cc1` [Compound 1, Benzyl[4-(4-Phenoxy)Benzoyloxy]Benzoate], the “Number of CFU/ml at t + 24 h” value is, setting by setting: under setting [1], 10^7 CFU/ml; under setting [2], 10^8 CFU/ml; under setting [3], 0 CFU/ml. Moreover, the “Number of CFU/ml at t + 48 h” value is, setting by setting: under setting [1], 36000 ^ CFU/ml; under setting [2], 3.2 × 10^6 CFU/ml; under setting [3], 0 CFU/ml. In addition, under “after 24 hours”, the “deodorant activity compared with benzyl-4-benzoyloxybenzoate” value is given as “comparable”. Further, the “deodorant activity relative to the benzyl-4-benzoyloxybenzoate” value (after 48 hours) is reported as “significantly higher”.
For the molecule `O=C(OCc1ccccc1)c1ccc(OC(=O)c2ccccc2)cc1` [benzyl-4-benzoyloxybenzoate, reference compound], the “Number of CFU/ml at t + 24 h” value is, setting by setting: under setting [1], 2.7 × 10^6 CFU/ml; under setting [2], 10^8 CFU/ml; under setting [3], 0 CFU/ml. Besides, the “Number of CFU/ml at t + 48 h” value runs as follows: under setting [1], 10^8 CFU/ml; under setting [2], 10^9 CFU/ml; under setting [3], 0 CFU/ml.
